Test results taken from patent US20240043386A1, “Modulators of the Cystic Fibrosis Transmembrane Conductance Regulator Protein and Methods of Use” (AbbVie Global Enterprises Ltd., priority 2021, published 2024).
Read-outs that look alike come from different tables or passages of the source.

Legend:
F508del/F508del CFTR = biological target: T1, F508del/F508del CFTR (Homo sapiens, UniProt P13569, DEL508-508); assay: Trans-Epithelial Current Clamp (TECC) assay using primary human bronchial epithelial cells; format: cell-based; conditions: for Emax (% Dual): maximum percent activity relative to positive control (co-corrector 0.15 μM + potentiator 0.45 μM = 100%), primary hBE cells F508del/F508del; for EC50: primary hBE cells homozygous F508del/F508del, test C2 corrector with co-corrector and potentiator, 18-24 hours at 37° C., equivalent CFTR current (IEQ)/AUC
T1 construct: cells isolated from CF patients with the homozygous mutation; endogenous in cells; host or cells: primary human bronchial epithelial (hBE) cells from CF patients homozygous for F508del
T1 sequence (P13569 with tags, fused parts or gaps DEL508-508): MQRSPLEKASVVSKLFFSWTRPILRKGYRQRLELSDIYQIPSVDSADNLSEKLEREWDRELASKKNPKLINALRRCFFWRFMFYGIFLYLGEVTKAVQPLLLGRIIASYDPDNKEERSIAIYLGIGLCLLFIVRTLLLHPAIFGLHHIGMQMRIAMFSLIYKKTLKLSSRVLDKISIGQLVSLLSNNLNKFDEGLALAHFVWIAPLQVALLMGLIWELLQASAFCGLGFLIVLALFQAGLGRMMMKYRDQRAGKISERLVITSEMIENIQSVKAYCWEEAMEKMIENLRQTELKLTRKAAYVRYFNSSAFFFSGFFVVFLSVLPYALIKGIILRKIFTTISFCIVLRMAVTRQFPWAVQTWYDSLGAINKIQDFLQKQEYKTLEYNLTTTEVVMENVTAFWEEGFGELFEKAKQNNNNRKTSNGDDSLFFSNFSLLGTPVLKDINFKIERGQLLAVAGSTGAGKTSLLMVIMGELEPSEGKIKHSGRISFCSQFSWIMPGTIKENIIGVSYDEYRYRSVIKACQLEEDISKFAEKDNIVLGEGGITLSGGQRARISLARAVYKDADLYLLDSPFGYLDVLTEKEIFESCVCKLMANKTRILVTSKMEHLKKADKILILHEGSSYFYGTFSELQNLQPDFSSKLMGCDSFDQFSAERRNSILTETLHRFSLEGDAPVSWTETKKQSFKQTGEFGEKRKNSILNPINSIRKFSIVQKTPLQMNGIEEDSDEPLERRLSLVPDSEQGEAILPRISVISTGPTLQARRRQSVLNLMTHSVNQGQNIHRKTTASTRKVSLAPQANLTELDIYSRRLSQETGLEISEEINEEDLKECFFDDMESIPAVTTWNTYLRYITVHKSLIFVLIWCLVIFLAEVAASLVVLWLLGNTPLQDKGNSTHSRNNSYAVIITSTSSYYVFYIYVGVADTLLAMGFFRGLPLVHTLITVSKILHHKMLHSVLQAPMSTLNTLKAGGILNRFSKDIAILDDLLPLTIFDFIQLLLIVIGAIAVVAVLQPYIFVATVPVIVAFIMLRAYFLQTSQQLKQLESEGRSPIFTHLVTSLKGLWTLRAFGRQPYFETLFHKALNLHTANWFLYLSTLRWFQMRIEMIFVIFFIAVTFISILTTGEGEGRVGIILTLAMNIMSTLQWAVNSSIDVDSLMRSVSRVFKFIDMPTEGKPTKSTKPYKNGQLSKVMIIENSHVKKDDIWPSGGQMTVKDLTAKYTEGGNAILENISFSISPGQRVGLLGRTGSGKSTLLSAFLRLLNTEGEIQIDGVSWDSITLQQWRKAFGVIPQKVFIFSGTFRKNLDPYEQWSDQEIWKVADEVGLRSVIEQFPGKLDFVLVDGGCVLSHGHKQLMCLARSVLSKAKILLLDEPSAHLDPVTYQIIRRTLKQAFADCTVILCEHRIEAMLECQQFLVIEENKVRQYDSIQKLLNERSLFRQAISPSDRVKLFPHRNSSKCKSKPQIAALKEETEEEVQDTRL
Description: A cell-based assay was developed using the primary human bronchial epithelial cells (hBE cells) with F508del/F508del CFTR and other mutations.
Primary human bronchial epithelial (hBE) cells from CFTR patients with homozygous F508del/F508del mutation were expanded from 1×10^6 to 250×10^6 cells (Neuberger, T et al., 2011, Methods Mol Biol 741:39-54). For this purpose, cells isolated from CF patients with the homozygous mutation, procured from the CF center tissue procurement and cell culture core at the Marsico Lung Institute at UNC (Randell), the Cystic Fibrosis translational research center at McGill University (University), and Rosalind Franklin University Medical School (RFUMS) were seeded onto 24 well Corning (Cat #3378) filter plates that were coated with 3T3 conditioned media and grown at an air-liquid interface for 35 days using an Ultroser® G supplemented differentiation media. All the primary human bronchial epithelial cells were collected in accordance with institutional review board approval protocols. Apical surface mucus was removed 72 hours before the experiment by incubating the apical surface of the cells for 30 minutes with 3 mM dithiothreitol (DTT) prepared in Dulbecco's phosphate buffered saline (DPBS) with Ca^2+ and Mg^2+. This was followed with aspiration of the mucus from the apical surface along with DPBS. The apical surface was re-washed with phosphate buffered saline (PBS) incubated for 30 minutes followed with aspiration. These hBE cells were then incubated with the desired concentrations of the test C2 corrector compounds along with co-corrector, 4-[(2R,4R)-4-({[1-(2,2-difluoro-1,3-benzodioxol-5-yl)cyclopropyl]carbonyl}amino)-7-(difluoromethoxy)-3,4-dihydro-2H-chromen-2-yl]benzoic acid and potentiator, (5-{3-amino-5-[4-(trifluoromethoxy)benzene-1-sulfonyl]pyridin-2-yl}-1,3,4-oxadiazol-2-yl)methanol, for 18-24 hours at 37° C., 5% CO2. The desired concentrations of the correctors and potentiator compounds were prepared from the 10 mM stocks in differentiation media and were always applied on the basolateral side of the epithelial cells. We also used an assay format where a fixed concentration of potentiator was added chronically along with the corrector compounds. This chronic treatment with the potentiator helped eliminate any interaction that might happen with CFTR modulators (correctors and potentiators) and thereby determined the true efficacy of the modulator combinations reflective of clinical relevance.
The assay uses a Transepithelial Current Clamp (TECC) (Vu, C B et al., 2017; J Med Chem 60:458-473) instrument that can measure the functionality of the mutated channel by measuring the equivalent CFTR current (IEQ) generated by the polarized primary epithelial cells. We used a TECC-24 with a 24-channel electrode manifold allowing for the simultaneous measurement of the transepithelial voltage, VT, and transepithelial resistance, RT, under current clamp conditions, from 24 filters using a 24 well Costar filter plate. The design of the filters in the 24 well filter plates was exactly the same as the design of an individual Transwell filter used in the classical Ussing Chamber with a surface area of 0.33 cm^2. Each measured VT values were corrected for the electrode offset potential measured using buffer alone in a separate plate, and each measured RT values were then corrected for the combined solution series and empty filter resistances. The corrected VT and RT values were then used to calculate the equivalent current, IEQ using Ohm's law (IEQ=VT/RT). The area under the curve (AUC) for the time period between the forskolin peak IEQ response and at the time of bumetanide addition was also calculated using a one-third trapezoid method, in addition to calculating the IEQ. The assay was run in a 24-well format and all 24-wells were measured at the same time point giving a higher throughput for this assay. […]

F508delCFTR = biological target: T2, F508delCFTR (Homo sapiens, UniProt P13569, DEL508-508); assay: Cell Surface Expression-Horse Radish Peroxidase (CSE-HRP) assay in CFBE41o-F508delCFTR-HRP cells; format: cell-based; conditions: for EC50: CFBE41o-F508delCFTR-HRP cells, 18-24 hours at 33° C., luminescence; for Maximum % activity (with co-corrector) / Maximum % activity (without co-corrector): normalized to on-plate positive control corrector (2 μM)
T2 construct: expressed in transfected cells; host or cells: CFBE41o- human lung-derived epithelial cell line, doxycycline-inducible expression
T2 sequence (P13569 with tags, fused parts or gaps DEL508-508): as above
Method: A cellular assay for measuring the F508delCFTR cell surface expression after correction with test compounds either without or with a co-corrector (2 μM of 3-[(2R,4R)-4-({[1-(2,2-difluoro-1,3-benzodioxol-5-yl)cyclopropyl]carbonyl}amino)-7-methoxy-3,4-dihydro-2H-chromen-2-yl]benzoic acid), was developed in human lung derived epithelial cell line (CFBE4lo-) (Veit G et al, (2012) Mol Biol Cell. 23(21): 4188-4202). The development was achieved by expressing the F508delCFTR mutation along with a horseradish peroxidase (HRP) in the fourth exofacial loop, and then measuring the HRP activity using luminescence readout from these cells, CFBE4lo-F508delCFTR-HRP, that were incubated overnight with the test corrector compounds, either without or with the co-corrector. For this primary assay, the CFBE4lo-F508delCFTR-HRP cells were plated in 384-well plates (Greiner Bio-one; Cat 781080) at 4,000 cells/well along with 0.5 μg/mL doxycycline to induce the F508delCFTR-RP expression and further incubated at 37° C., 5% CO2 for 68-72 hours. The test compounds were then added either without or with a co-corrector at the required concentrations and further incubated for 18-24 hours at 33° C. The highest concentration tested was 20 μM or 30 μM (GI-1 to GIII-36) with an 8-point concentration response curve using a 3-fold dilution in both the test compound without or with the co-corrector. Three replicate plates were run to determine one EC50. All plates contained negative controls (dimethyl sulfoxide, DMSO) and positive control (2 μM or 3 μM (GI-1 to GIII-36) of 3-[(2R,4R)-4-({[1-(2,2-difluoro-1,3-benzodioxol-5-yl)cyclopropyl]carbonyl}amino)-7-methoxy-3,4-dihydro-2H-chromen-2-yl]benzoic acid) as well as on-plate concentration response of the positive control. Post incubation, the plates were washed 5× times with Dulbecco's phosphate buffered saline (DPBS), followed by the addition of the HRP substrate, luminol (50 μL), and measuring the HRP activity using luminescence readout on EnVision® Multilabel Plate Reader (Perkin Elmer; product number 2104-0010). The raw counts from the experiment were analyzed using Accelrys® Assay Explorer v3.3.
Z′ greater than 0.5 was used as passing quality control criteria for the plates. The Z′ is defined as:
1−[3*SDPositive Control+3*SDNegative Control/Absolute (MeanPositive Control−MeanNegative Control)]
The % activity measured at each of the 8 test concentrations of the test compound added either without or with a co-corrector (2 μM or 3 μM (GI-1 to GIII-36) of 3-[(2R,4R)-4-({[1-(2,2-difluoro-1,3-benzodioxol-5-yl)cyclopropyl]carbonyl}amino)-7-methoxy-3,4-dihydro-2H-chromen-2-yl]benzoic acid) was normalized to the on-plate positive control using the following formulae:
% activity (Test compound without co-corrector)=[(test compound without co-corrector response−DMSO response)/(positive control response−DMSO response)]*100
% activity (Test compound with co-corrector)=[(test compound with co-corrector response−DMSO response)/(positive control response−DMSO response)]*100
The maximum % activity achieved for the test compound either without or with a co-corrector at any tested concentration is presented in Table 3 along with the respective EC50's calculated using the following general sigmoidal curve with variable Hill slope equation (described as Model 42 in the Accelrys® Assay Explorer v3.3 software):
General sigmoidal curve with concentration, response, top, bottom, EC50 and Hill slope. This model describes a sigmoidal curve with an adjustable baseline, a. The equation can be used to fit curves where response is either increasing or decreasing with respect to the independent variable, “x”.

[1] = with co-corrector (2 μM), read-out: EC50 (with co-corrector)
[2] = without co-corrector, read-out: EC50 (without co-corrector)

Compound | Emax (% Dual) (F508del/F508del CFTR) | EC50 (F508del/F508del CFTR) | EC50 (F508delCFTR; [1]) | Maximum % activity (with co-corrector) (F508delCFTR; with co-corrector (2 μM)) | EC50 (F508delCFTR; [2]) | Maximum % activity (without co-corrector) (F508delCFTR; without co-corrector)
COc1ncc([C@H]2C[C@@]2(C(=O)NS(=O)(=O)c2cccc3nc(C)ccc23)c2cc(C)ccc2OC)cn1 (single isomer, unassigned) [Example 38] | 202 % Dual | 219 nM | 1810 nM | 995% | 3020 nM | 419%
COc1ccc(C)cc1[C@]1(C(=O)NS(=O)(=O)c2cccc3nc(C)ccc23)C[C@@H]1c1cccc(OC(C)C)n1 [Example 97, (1S,2S)-1-(2-methoxy-5-methylphenyl)-N-(2-methylquinoline-5-sulfonyl)-2-{6-[(propan-2-yl)oxy]pyridin-2-yl}cyclopropane-1-carboxamide] | 198 % Dual | 0.9 nM | 359 nM |  | 988 nM | 
COc1ccc(C)cc1[C@]1(C(=O)NS(=O)(=O)c2cccc3nc(C)ccc23)C[C@@H]1c1ccc(C(C)C)nc1OC (single isomer, unassigned) [Example 88] | 275 % Dual | 12.6 nM | 534 nM |  | 1180 nM | 910%
COc1cccc([C@@H]2C[C@]2(C(=O)NS(=O)(=O)c2cccc3nc(C)ccc23)c2cc(C)ccc2OC)c1 (single isomer, unassigned) [Example 27] | 275 % Dual | 15.7 nM | 429 nM |  | 405 nM | 465%
COc1ccc(C)cc1[C@@]1(C(=O)NS(=O)(=O)c2cccc3nc(C)ccc23)C[C@H]1c1cccnc1OC (racemic) [Example 40, rac-(1r,2s)-1-(2-methoxy-5-methylphenyl)-2-(2-methoxypyridin-3-yl)-N-(2-methylquinoline-5-sulfonyl)cyclopropane-1-carboxamide] | 328 % Dual | 19.6 nM | 749 nM | 934% | 1550 nM | 448%
COc1cncc([C@H]2C[C@@]2(C(=O)NS(=O)(=O)c2cccc3nc(C)ccc23)c2cc(C)ccc2OC)n1 (single isomer, unassigned) [Example 75] | 402 % Dual | 36.2 nM | 635 nM |  | 1650 nM | 939%
COc1ccc(C)cc1[C@]1(C(=O)NS(=O)(=O)c2cccc3nc(C)ccc23)C[C@@H]1c1ccc(N(C)C)nc1 [Example 68, (1S,2R)-2-[6-(dimethylamino)pyridin-3-yl]-1-(2-methoxy-5-methylphenyl)-N-(2-methylquinoline-5-sulfonyl)cyclopropane-1-carboxamide] | 217 % Dual | 21.1 nM | 1120 nM |  | 2760 nM | 657%
COc1ccc(C)cc1[C@]1(C(=O)NS(=O)(=O)c2cccc3nc(C)ccc23)C[C@@H]1c1cccc(C(F)F)n1 [Example 77, (1S,2S)-2-[6-(difluoromethyl)pyridin-2-yl]-1-(2-methoxy-5-methylphenyl)-N-(2-methylquinoline-5-sulfonyl)cyclopropane-1-carboxamide] | 289 % Dual | 0.4 nM | 327 nM |  | 1660 nM | 
COc1ccc(C)cc1[C@]1(C(=O)NS(=O)(=O)c2cccc3nc(C)ccc23)C[C@@H]1c1ccc(C)cc1 (single isomer, unassigned) [Example 7] | 487 % Dual | 0.8 nM | 926 nM |  | 1450 nM | 
COc1ccc(C)cc1[C@]1(C(=O)NS(=O)(=O)c2cccc3nc(C)ccc23)C[C@@H]1c1cnc(OC)c(F)c1 [Example 76, (1S,2R)-2-(5-fluoro-6-methoxypyridin-3-yl)-1-(2-methoxy-5-methylphenyl)-N-(2-methylquinoline-5-sulfonyl)cyclopropane-1-carboxamide] | 269 % Dual | 2.4 nM | 989 nM |  | 2140 nM | 
